Data from patent publication US20250144067A1, “PERSONALIZED STARVATION THERAPY FOR CANCER” (Faeth Therapeutics, Inc., priority 2021, published 2025).
Where a name gives a salt, the structure may show the parent alone. Numbered stars: 1 amine (or outer) side, 2 acyl side, 3 side chain; on linkers, the order of the positions; unused ones are H or OH. Bridge positions count the residues as written; N and C are the ends. Square brackets hold non-standard residues; d marks the D form. Peptide text beside a SMILES is read from it. * marks the point of attachment. pTerphenylCO(4''-OnC5H11) = CCCCCOc1ccc(-c2ccc(-c3ccc(C(=O)*)cc3)cc2)cc1; Orn(4R-OH,5R-OH) = O=C([C@H](C[C@@H](O)[C@@H](O)N[*:3])N[*:1])[*:2]; hTyr(3S-OH,4S-OH) = N[C@H](C(=O)O)[C@H](O)[C@@H](O)c1ccc(O)cc1; Pro(3S-OH,4S-Me) = C[C@H]1CN[C@H](C(=O)O)[C@H]1O; Hyp = O=C(O)[C@@H]1C[C@@H](O)CN1

What was measured:
[1] = tested on: NCI-H292 lung cancer cells; experiment: FDA drug screening, complete media vs cholesterol-free media with simvastatin (TABLE 2); type: cell-based, human; conditions: for Cholesterol-free media + simvastatin (0.04 μM) / Complete Media: NCI-H292 cells
[2] = tested on: NCI-H292 lung cancer cells; experiment: FDA drug screening, complete media vs cholesterol-free media without statin (TABLE 1); type: cell-based, human
[3] = cholesterol-free media with simvastatin 0.04 μM, cell growth value in FDA drug screen
[4] = complete media, cell growth value in FDA drug screen
[5] = complete media minus cholesterol-free media + simvastatin, >0 enhanced anti-cancer activity, about 0 neutral, <0 antagonist
[6] = FDA library drug in cholesterol-free media with simvastatin 0.04 μM
[7] = FDA library drug in complete media
[8] = complete media vs cholesterol-free media + simvastatin (0.04 μM), >0 enhanced anti-cancer activity, about 0 neutral, <0 antagonist
[9] = Complete minus Cholesterol-free, greater than 0 enhanced anti-cancer activity, about 0 neutral, below 0 antagonist
[10] = NCI-H292 cells, FDA drug library screen, cholesterol-free media without statin
[11] = NCI-H292 cells, FDA drug library screen, complete media
[12] = FDA drug library screen, cholesterol-free media with simvastatin 0.04 μM
[13] = FDA drug library screen, complete media
[14] = NCI-H292 cells, cholesterol-free media without statin, FDA drug library screen
[15] = NCI-H292 cells, complete media, FDA drug library screen
[16] = complete vs cholesterol-free media, >0 enhanced anti-cancer activity, about 0 neutral, <0 antagonist
[17] = Complete minus Cholesterol-free, >0 enhanced anti-cancer activity, about 0 neutral, <0 antagonist
[18] = NCI-H292 cells, cholesterol-free media without statin
[19] = complete media vs cholesterol-free media + simvastatin (0.04 μM), […]
[20] = Complete minus Cholesterol-free, […]

In the case of `O=C(O)CCC(=O)c1ccc(-c2ccccc2)cc1` [Fenbufen], the “Cholesterol-free media + simvastatin (0.04 μM)” value [1, 3] is reported as 0.8759, the “Complete Media” value [1, 4] is reported as 0.8928 and the Difference [1, 5] is reported as 0.02. It also gave a Difference ([2]; Complete minus Cholesterol-free, greater than 0 enhanced anti-cancer activity, about 0 neutral, below 0 antagonists) of −0.96, a Cholesterol-free ([2]; NCI-H292 cells in cholesterol-free media without statin) of 1.772 and a Complete ([2]; NCI-H292 cells in complete media) of 0.811.

With `CCN[C@H]1C[C@H](C)S(=O)(=O)c2sc(S(N)(=O)=O)cc21` [Dorzolamide (hydrochloride)] the “Cholesterol-free media + simvastatin (0.04 μM)” value [1, 6] was 0.9476, the “Complete Media” value [1, 7] was 0.6459 and the Difference [1, 8] was −0.30. It also gave a Difference [2, 9] of −0.11, a Cholesterol-free [2, 10] of 1.045 and a Complete [2, 11] of 0.9378.

`CCCCOc1ccc(CC(=O)NO)cc1` [Bufexamac] was tested, and the “Cholesterol-free media + simvastatin (0.04 μM)” value [1, 12] was 1.029, the “Complete Media” value [1, 13] was 1.594 and the Difference [1, 5] was 0.56. It also gave a Cholesterol-free [2, 14] of 1.346, a Complete [2, 15] of 1.459 and a Difference [2, 16] of 0.11.

With `C[C@@H](O[C@H]1OCCN(Cc2n[nH]c(=O)[nH]2)[C@H]1c1ccc(F)cc1)c1cc(C(F)(F)F)cc(C(F)(F)F)c1` [Aprepitant] the “Cholesterol-free media + simvastatin (0.04 μM)” value [1, 3] was 1.036, the “Complete Media” value [1, 4] was 1.144 and the Difference [1, 5] was 0.11. For the same molecule, the Difference [2, 17] was −0.20, the Cholesterol-free [2, 18] was 0.998 and the Complete ([2]; NCI-H292 cells, complete media) was 0.7992.

In the case of `NS(=O)(=O)c1cc2c(cc1Cl)N=CNS2(=O)=O` [Chlorothiazide], the “Cholesterol-free media + simvastatin (0.04 μM)” value ([1]; drug in cholesterol-free media with simvastatin 0.04 μM) is reported as 1.126, the “Complete Media” value ([1]; drug in complete media) is reported as 0.9372 and the Difference [1, 8] is reported as −0.19. For the same molecule, the Cholesterol-free [2, 14] was 0.8661, the Complete [2, 15] was 1.321 and the Difference [2, 16] was 0.45.

In the case of `N[C@@H](CC(=O)N1CCn2c(nnc2C(F)(F)F)C1)Cc1cc(F)c(F)cc1F` [Sitagliptin], the “Cholesterol-free media + simvastatin (0.04 μM)” value [1, 12] is reported as 1.605, the “Complete Media” value [1, 13] is reported as 1.493 and the Difference [1, 8] is reported as −0.11. For the same molecule, the Difference [2, 9] was −0.08, the Cholesterol-free [2, 10] was 0.9944 and the Complete [2, 11] was 0.9145.

In the case of `Cc1cc(=O)n(-c2ccccc2)n1C` [Antipyrine], the “Cholesterol-free media + simvastatin (0.04 μM)” value [1, 12] is reported as 0.9785, the “Complete Media” value [1, 13] is reported as 0.8535 and the Difference [1, 19] is reported as −0.13. The Difference [2, 20] was −0.24, the Cholesterol-free [2, 18] was 1.066 and the Complete ([2]; NCI-H292 cells, complete media) was 0.8256.

Oclacitinib (maleate) was tested, and the “Cholesterol-free media + simvastatin (0.04 μM)” value [1, 12] was 0.9891, the “Complete Media” value [1, 13] was 0.8445 and the Difference [1, 8] was −0.14. The Difference [2, 9] was −0.16, the Cholesterol-free [2, 10] was 0.7098 and the Complete [2, 11] was 0.5476.

For `CCCCCOc1ccc(-c2ccc(-c3ccc(C(=O)N[C@H]4C[C@@H](O)[C@@H](O)NC(=O)[C@@H]5[C@@H](O)[C@@H](C)CN5C(=O)[C@H]([C@@H](C)O)NC(=O)[C@H]([C@H](O)[C@@H](O)c5ccc(O)cc5)NC(=O)[C@@H]5C[C@@H](O)CN5C(=O)[C@H]([C@@H](C)O)NC4=O)cc3)cc2)cc1` [Anidulafungin] ({pTerphenylCO(4''-OnC5H11)}-[Orn(4R-OH,5R-OH)]T[Hyp][hTyr(3S-OH,4S-OH)]T[Pro(3S-OH,4S-Me)]; lactam 1-C), the “Cholesterol-free media + simvastatin (0.04 μM)” value [1, 12] was 1.251, the Difference ([1]; complete media minus cholesterol-free media + simvastatin (0.04 μM), […]) was −1.03 and the Difference [2, 20] was −0.23. The Cholesterol-free [2, 18] was 1.481 and the Complete ([2]; NCI-H292 cells, complete media) was 1.247.

In the case of Pasiniazid, the “Cholesterol-free media + simvastatin (0.04 μM)” value [1, 12] is reported as 1.047, the “Complete Media” value [1, 13] is reported as 1.325 and the Difference ([1]; complete media minus cholesterol-free media + simvastatin, […]) is reported as 0.28. The Cholesterol-free [2, 14] was 1.164, the Complete [2, 15] was 1.274 and the Difference ([2]; complete vs cholesterol-free media, […]) was 0.11.

With `CC(C)C[C@@H](N)C(=O)N[C@H]1C(=O)N[C@@H](CC(N)=O)C(=O)N[C@H]2C(=O)N[C@H]3C(=O)N[C@H](C(=O)N[C@H](C(=O)O)c4cc(O)cc(O)c4-c4cc3ccc4O)[C@H](O)c3ccc(c(Cl)c3)Oc3cc2cc(c3O[C@@H]2O[C@H](CO)[C@@H](O)[C@H](O)[C@H]2O[C@H]2C[C@](C)(N)[C@H](O)[C@H](C)O2)Oc2ccc(cc2Cl)[C@H]1O.Cl` [Norvancomycin (hydrochloride)] the “Cholesterol-free media + simvastatin (0.04 μM)” value [1, 6] was 1.335, the “Complete Media” value [1, 7] was 0.8954 and the Difference [1, 19] was −0.44. For the same molecule, the Difference [2, 20] was −0.07 and the Cholesterol-free [2, 10] was 1.244.

For `O=C(Cn1ccnc1[N+](=O)[O-])NCc1ccccc1` [Benznidazol], the “Cholesterol-free media + simvastatin (0.04 μM)” value [1, 6] was 2.104, the “Complete Media” value [1, 7] was 1.636 and the Difference [1, 8] was −0.47. For the same molecule, the Cholesterol-free [2, 14] was 1.047, the Complete [2, 15] was 1.215 and the Difference [2, 16] was 0.17.

In the case of Triamcinolone (acetonide), the “Cholesterol-free media + simvastatin (0.04 μM)” value ([1]; cholesterol-free media with simvastatin 0.04 μM, FDA drug library screen (TABLE 2)) is reported as 0.6359, the “Complete Media” value ([1]; complete media, FDA drug library screen (TABLE 2)) is reported as 0.588 and the Difference ([1]; complete media minus cholesterol-free media + simvastatin (0.04 μM), >0 enhanced anti-cancer activity, about 0 neutral, <0 antagonist) is reported as −0.05. The Difference [2, 17] was −0.04, the Cholesterol-free [2, 14] was 0.5663 and the Complete [2, 15] was 0.5288.
